Two compounds from patent publication US11065336B2, “Conjugates for targeting and clearing aggregates” (MedImmune Limited, priority 2018, dated 2021) can be followed below.

In series [1] the test system is amyloid proteins (hen lysozyme (hLys), human full-length alpha synuclein, human tau P301S). As to the kind of experiment: fluorometric assay of binding to amyloid proteins. Conditions: 30 μM reporter solution in PBS; excitation 450 nm, emission 460-680 nm; compared to amyloid-free control. As to the method:
The binding of BDB to various amyloid proteins was evaluated in vitro using a fluorometric assay.
The amyloid proteins (hen lysozyme (hLys), human full-length alpha synuclein, and human tau P301S) were individually prepared for use in the fluorometric assay. hLys (Sigma) was dissolved in 136.8 mM NaCl, 2.68 mM KCl, 0.01% w/v NaN3, pH 2 at a concentration of 1.45 mg/ml and incubated at 55° C. for 24 h in an orbital shaker at 150 rpm. Human full length alpha synuclein (Alexotech) was dissolved in 150 mM NaCl, 1% v/v triton-x100 in PBS at a concentration of 2.2 mg/ml and incubated at 37° C. for 72 h in an orbital shaker at 250 rpm. Human tau P301S was incubated at 8 mg/ml with 4 mg/ml heparin (Sigma) in PBS, 30 mM 3-(N-morpholino) propanesulfonic acid (MOPS) (pH 7.2) at 37° C. for 72 h. […]
The binding of the BDB to amyloid was detected using a fluorometric assay. The amyloid binding was detected with the use of one of three fluorescent reporters solutions (30 μM BDB, cp33 peptide (Bonetto S et al. FASEB J. 2009; 23(2):575-85) or Thioflavin T (ThT) (Sigma) solution, in PBS). […] An Envision plate reader was set to excite at 450 nm and measure emission within the range 460-680 nm. The corresponding fluorescence signals of the reporter solutions were subtracted from the experimental data.

Series [2] deals with macrophage-differentiated U937 cells. As to the kind of experiment: phagocytosis of pHrodo-red labelled hLys amyloid (IncuCyte). In kind it is cell-based, human. As to the method:
Macrophage-differentiated U937 cells were co-incubated with pHrodo-red labelled amyloid, BDB, cp33 peptide, or control in order to determine the amount of amyloid phagocytosed under various conditions. hLys amyloid fibrils were generated as described above and were labelled with the pHrodo Red Microscale Labeling Kit (ThermoFisher) according to the manufacturers instruction except that unincorporated label was removed from the labelled amyloid by three rounds of centrifuging at 20,000×g in a microfuge, discarding the supernatant and resuspending the amyloid pellet in PBS. U937 cells were differentiated into macrophages in the presence of […] M-CSF (Peprotech), 1 μg/ml PMA (Sigma) and […] IFNγ (Thermo Fisher Scientific) for 4 days. 8×10^5 cells/condition were centrifuged for 3 min at 300 g and resuspended in 50 μl of 1 μM BDB, 1 μM cp33, 1 μM BDB with 0.1 μM labelled amyloid, 1 μM cp33 with 0.1 μM labelled amyloid, 0.1 μM labelled amyloid or a 1:100 PBS dilution of a pHrodo Red-labelled E. coli suspension (Thermo Fisher Scientific). […]
The plates were placed in an IncuCyte instrument and settings programmed to scan both in phase contrast and the red fluorescence channel hourly for 48 h. […] A metric of Total Red Object Area (μm^2/well) was used to quantify the appearance of pHrodo red fluorescence within cells. […]

For series [3], the system named is IFNγ-activated U937 cells. As to the kind of experiment: colocalization of BDB and AF647-labelled hLys amyloid to the surface of U937 cells (FACS). In kind it is cell-based, human. Conditions: 1 μM BDB or cp33. As for the experimental part:
IFNγ-activated U937 cells, a human macrophage cell line, were incubated with either BDB, cp33 peptide, or vehicle in the presence or absence of Alexa Fluor™ 647-labelled hLys amyloid in order to determine if the IFNγ-activated U937 cells have increased binding of amyloid in the presence of BDB or cp33 peptide as compared to vehicle.
Specifically, hLys were labelled with the fluorescent dye alexa 647, using the Alexa Fluor™ 647 Microscale Protein Labelling Kit (Thermo Fisher Scientific) according to the manufacturer's instructions with the following modifications: after protein labelling, the solution was made up to 500 μl with PBS and the sample centrifuged at 20800 for 40 min. The supernatant was discarded and the pellet washed with PBS, resuspended in 500 μl PBS and the centrifugation repeated. The final pellet was resuspended in 100 μl of PBS.
U937 cells were cultured in RPMI 1640+2 mM Glutamine+10% v/v FCS for 48 h in the presence of […] human IFNγ. Aliquots of 5×10^5 cells were centrifuged 3 min at 300 g and resuspended in 50 μl of either 1 μM BDB or cp33 and then incubated with either 1 or 0.1 μM AF647-hLyz. The staining and FACS analysis were performed as before, this time reporting the percentage of live cells positive for both AF488-streptavidin and AF647 h-Lyz.

The test system of series [4] is Fc receptor on IFNγ-activated U937 cells. As to the kind of experiment: competition of BDB and cp33 peptide binding with unlabelled human IgG1 (FACS). The series is classed as cell-based. As to conditions: 1 μM BDB or cp33; human IgG1 above approximately 10 nM.
The subject of series [5] is IFNγ-activated U937 cells. In words: titrating BDB and IgG1 binding to IFNg stimulated U937 cells (FACS). In kind it is cell-based, human. As to conditions: flow cytometry. As to the method: (§1) Specifically, U937 cells were cultured in RPMI 1640+2 mM Glutamine+10% v/v foetal bovine serum (FCS) for 48 h in the absence or presence of […] human IFNγ (Thermo Fisher Scientific). Murine primary macrophages were cultured for 48 h in the absence or presence of 100 μg/ml LPS (Sigma). Aliquots of 5×10^5 cells were centrifuged 3 min at 300 g and resuspended either in 50 μl of 10 μM BDB, 1 μM biotinylated human IgG1 or PBS. Samples were incubated at 4° C. for 1 h and then centrifuged for 3 min at 100 g. Cells were resuspended in 50 μl of either AF488-streptavidin conjugate (Thermo Fisher Scientific, 1:500 in PBS) with APC-Cy7 dead/live stain (Thermo Fisher Scientific, 1:2000 in PBS) or dead/live stain only. Samples were incubated at 4° C. for 30 min and then centrifuged for 3 min at 100 g. Samples were washed with 200 μl cold PBS and resuspended in 250 μl PBS for analysis using a FACS Canto II, with 10^4 events recorded per condition. Using FlowJo software, cells were visualised using forward and side scatter plots (FSC vs. SSC) and live cells were gated according to their live/dead staining. The percentage of live cells positive for AF488 signal was identified for each condition and plotted. The experiment was repeated three times and results present as the mean (+/−SD). […]
The binding of BDB and IgG1 to IFNγ stimulated U937 cells was determined using the following methods. […]

Series [6] deals with U937 cells treated with IFNγ. In words: FACS binding to activated and non-activated U937 cells. In kind it is cell-based. As to conditions: 10 μM BDB or 1 μM biotinylated human IgG1; 4° C., 1 h. As for the experimental part:
(§2) In order to determine the binding affinity of BDB to activated phagocytic cells, activated and non-activated U937 cells or murine primary macrophages were resuspended in the presence of BDB, biotinylated human IgG1, or PBS. The cells were then stained using either AF488-streptavidin conjugate, APC-Cy7 dead/live stain, or dead/live stain only and measured using fluorescence activated cell sorting (FACS).
as §1, with “condition.” for “condition. Using FlowJo software, cells were visualised using forward and side scatter plots (FSC vs. SSC) and live cells were gated according to their live/dead staining. The percentage of live cells positive for AF488 signal was identified for each condition and plotted. The experiment was repeated three times and results present as the mean (+/−SD).”

The subject of series [7] is murine primary macrophages treated with LPS. As to the kind of experiment: FACS binding to activated and non-activated murine primary macrophages. In kind it is cell-based. Conditions: 10 μM BDB or 1 μM biotinylated human IgG1; 4° C., 1 h. As to the method:
as §2
as §1, with “condition.” for “condition. Using FlowJo software, cells were visualised using forward and side scatter plots (FSC vs. SSC) and live cells were gated according to their live/dead staining. The percentage of live cells positive for AF488 signal was identified for each condition and plotted. The experiment was repeated three times and results present as the mean (+/−SD).”

Ends that are not written are not given here. A value given as a limit tells only on which side of the number the result lay.

With `Cc1ccc2c(c1)sc(-c1ccc(N(C)C)cc1)[n+]2C.[Cl-]` [Tht, Thioflavin T, reference compound], the “fluorescence in the presence of amyloid proteins” value in series [1] is “increased fluorescence”.
For the compound “BDB: conjugate of Compound 1 (carboxylic acid derivative of thioflavin T) added as terminal residue to biotinylated cyclic cp33 peptide derivative (SEQ ID NO:3) (AQVNSCLLLPNLLGCGDDK; not fully specified (bridges); cysteine pairing not given here; also: biotinylated, thioflavin T derivative (Compound 1) added as terminal residue, end not given here)”, the “pHrodo red signal in the absence of amyloid” value in series [2] (1 μM BDB or 1 μM cp33, no amyloid) was “did not generate a signal”. Further, the “phagocytosis of amyloid (pHrodo red signal, Total Red Object Area)” value in series [2] (1 μM BDB with 0.1 μM labelled amyloid, compared to cp33-amyloid or amyloid alone, hourly for 48 h) was “enhances the phagocytosis of amyloid”. Also, in series [3], the “cell binding with or without amyloid” value is “show cell binding irrespective of whether amyloid is present”. For the same compound, the “IFNγ-activated U937 cells binding amyloid (live cells positive for both AF488-streptavidin and AF647 h-Lyz)” value in series [3] (1 or 0.1 μM AF647-hLyz) was “Up to 14.4%”. In addition, in series [4], the “displacement from binding to IFNγ-activated U937 cells by human IgG1” value is given as “displaced”. In series [5] (BDB 0.01-5 μM, biotinylated IgG1 0.01-1 μM), the “IFNg-activated U937 cells bound” value was not above 80%. For the same compound, the EC50 in series [5] (read-out: half-maximal binding to IFNγ-activated U937 cells) is approximately 0.2 µM. The “fluorescence in the presence of amyloid proteins” value in series [1] is “increased fluorescence”. In addition, the “binding to U937 cells treated with IFNγ versus non-activated (percentage of live cells positive for AF488 signal)” value in series [6] is listed as “enhanced binding”. In addition, the “binding to murine primary macrophages treated with LPS versus non-activated (percentage of live cells positive for AF488 signal)” value in series [7] is “enhanced binding”.
